Experimental data from US12257323B2, “Modified wound dressings” (CONVATEC TECHNOLOGIES INC., priority 2016, dated 2025).

How the values were obtained:
[1] = Hydrogel formation in buffer viewed under light microscope; conditions: pH 4 general lab buffer or pH 9 K2HPO4/MgCl2 buffer (20 μL each)
[2] = target: MMP-8 (Homo sapiens, UniProt P22894); conditions: cited from earlier work
[3] = target: T1, MMP-7 (Homo sapiens, UniProt P09237); conditions: cited from earlier work
T1 sequence (P09237 95-267): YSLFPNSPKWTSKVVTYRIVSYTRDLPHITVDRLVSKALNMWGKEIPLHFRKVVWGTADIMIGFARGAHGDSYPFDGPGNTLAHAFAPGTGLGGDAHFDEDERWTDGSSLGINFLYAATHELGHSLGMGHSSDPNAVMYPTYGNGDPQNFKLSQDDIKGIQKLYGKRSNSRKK

[4] = target: MMP-3 (Homo sapiens, UniProt P08254); conditions: cited from earlier work
[5] = target: MMP-9 (Homo sapiens, UniProt P14780); conditions: cited from earlier work
[6] = target: T2, MMP-1 (Homo sapiens, UniProt P03956); conditions: cited from earlier work
T2 sequence (P03956 100-469): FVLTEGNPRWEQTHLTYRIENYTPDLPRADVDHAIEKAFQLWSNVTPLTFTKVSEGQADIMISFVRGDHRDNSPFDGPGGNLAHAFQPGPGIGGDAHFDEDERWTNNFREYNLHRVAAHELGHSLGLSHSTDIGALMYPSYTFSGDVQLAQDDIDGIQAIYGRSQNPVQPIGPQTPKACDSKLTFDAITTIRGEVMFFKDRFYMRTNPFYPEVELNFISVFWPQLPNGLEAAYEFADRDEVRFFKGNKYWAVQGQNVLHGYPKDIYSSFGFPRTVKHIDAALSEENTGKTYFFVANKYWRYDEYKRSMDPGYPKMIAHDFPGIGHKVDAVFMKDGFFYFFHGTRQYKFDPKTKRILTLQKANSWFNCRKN

[7] = target: T3, MMP-2 (Homo sapiens, UniProt P08253); conditions: cited from earlier work
T3 sequence (P08253 110-660): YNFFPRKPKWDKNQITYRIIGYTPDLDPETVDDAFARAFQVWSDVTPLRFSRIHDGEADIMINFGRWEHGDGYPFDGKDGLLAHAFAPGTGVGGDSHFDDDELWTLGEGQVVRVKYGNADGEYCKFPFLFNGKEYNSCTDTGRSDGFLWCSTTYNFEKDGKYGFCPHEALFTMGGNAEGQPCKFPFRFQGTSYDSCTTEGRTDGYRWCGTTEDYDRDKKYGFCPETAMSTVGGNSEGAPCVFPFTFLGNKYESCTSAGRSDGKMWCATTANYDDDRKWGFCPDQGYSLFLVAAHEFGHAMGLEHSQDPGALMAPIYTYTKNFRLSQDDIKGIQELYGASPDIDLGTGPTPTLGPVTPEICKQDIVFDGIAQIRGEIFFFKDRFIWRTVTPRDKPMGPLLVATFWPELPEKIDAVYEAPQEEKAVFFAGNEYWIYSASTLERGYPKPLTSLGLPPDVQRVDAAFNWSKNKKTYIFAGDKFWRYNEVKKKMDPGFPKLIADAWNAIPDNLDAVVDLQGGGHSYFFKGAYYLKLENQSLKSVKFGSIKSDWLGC

MMP-3, sequence (P08254 100-477): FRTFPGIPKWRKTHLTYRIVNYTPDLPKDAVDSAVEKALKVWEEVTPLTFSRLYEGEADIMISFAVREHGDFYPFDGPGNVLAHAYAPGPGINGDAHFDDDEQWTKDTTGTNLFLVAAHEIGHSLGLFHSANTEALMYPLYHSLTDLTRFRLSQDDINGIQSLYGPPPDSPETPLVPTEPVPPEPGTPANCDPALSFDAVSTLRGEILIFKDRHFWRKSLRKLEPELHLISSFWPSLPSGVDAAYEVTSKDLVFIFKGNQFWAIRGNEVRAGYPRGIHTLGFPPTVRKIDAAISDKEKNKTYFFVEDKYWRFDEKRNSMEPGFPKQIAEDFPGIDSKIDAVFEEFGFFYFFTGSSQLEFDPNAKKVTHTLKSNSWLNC
MMP-8, sequence (P22894 101-467): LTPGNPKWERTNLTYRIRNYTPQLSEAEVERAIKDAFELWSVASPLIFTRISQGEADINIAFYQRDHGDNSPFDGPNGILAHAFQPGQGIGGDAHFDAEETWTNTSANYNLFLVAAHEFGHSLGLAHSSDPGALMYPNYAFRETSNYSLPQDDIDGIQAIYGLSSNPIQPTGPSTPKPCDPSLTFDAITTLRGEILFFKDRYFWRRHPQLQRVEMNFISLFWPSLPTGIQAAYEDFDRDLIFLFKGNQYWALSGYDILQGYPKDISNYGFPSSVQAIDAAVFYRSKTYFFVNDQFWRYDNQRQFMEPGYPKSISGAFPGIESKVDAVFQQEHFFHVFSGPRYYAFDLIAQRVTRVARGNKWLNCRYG
MMP-9, sequence (P14780 94-707): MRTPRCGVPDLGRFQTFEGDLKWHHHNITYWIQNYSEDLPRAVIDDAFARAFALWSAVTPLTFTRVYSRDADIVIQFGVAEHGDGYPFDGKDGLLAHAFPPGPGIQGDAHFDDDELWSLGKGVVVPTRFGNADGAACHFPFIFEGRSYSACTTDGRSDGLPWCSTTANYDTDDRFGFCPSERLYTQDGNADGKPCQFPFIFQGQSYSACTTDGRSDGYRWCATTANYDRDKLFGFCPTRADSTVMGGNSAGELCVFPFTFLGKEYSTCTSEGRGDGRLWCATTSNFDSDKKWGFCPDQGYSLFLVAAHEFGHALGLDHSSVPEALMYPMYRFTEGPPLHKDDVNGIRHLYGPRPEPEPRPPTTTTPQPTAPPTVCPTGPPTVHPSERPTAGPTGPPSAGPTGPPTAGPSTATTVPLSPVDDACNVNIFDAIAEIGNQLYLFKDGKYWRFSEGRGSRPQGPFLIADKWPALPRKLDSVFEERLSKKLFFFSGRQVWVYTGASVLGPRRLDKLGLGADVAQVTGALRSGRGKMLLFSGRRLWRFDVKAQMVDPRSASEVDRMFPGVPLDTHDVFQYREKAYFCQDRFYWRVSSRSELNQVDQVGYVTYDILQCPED

CN(C)c1ccc(/N=N/c2ccc(S(=O)(=O)NCCCC[C@H](NC(=O)OCC3c4ccccc4-c4ccccc43)C(=O)O)cc2)cc1 [compound 4-c]
Hydrogel formation on contact with buffer [1]: did not form a hydrogel

Gly-Pro-Gln-Gly#Val-Ala-Gly-Gln
Relative rate MMP-8 [2]: 9.0
Relative rate MMP-7 [3]: 17
Relative rate MMP-3 [4]: 53
Relative rate MMP-9 [5]: 25
Relative rate MMP-1 [6]: 9.1
Relative rate MMP-2 [7]: 30

Gly-Pro-Gln-Leu#Ile-Ala-Gly-Gln
Relative rate MMP-8 [2]: 54
Relative rate MMP-7 [3]: 49
Relative rate MMP-3 [4]: 170
Relative rate MMP-9 [5]: 8.8
Relative rate MMP-1 [6]: 27
Relative rate MMP-2 [7]: 21

Gly-Pro-Gln-Met#Ile-Ain-Gly-Gln
Relative rate MMP-8 [2]: 140
Relative rate MMP-7 [3]: 150
Relative rate MMP-3 [4]: 110
Relative rate MMP-9 [5]: 12
Relative rate MMP-1 [6]: 200
Relative rate MMP-2 [7]: 22

Gly-Pro-Gln-Phe#Ile-Ala-Gly-Gln
Relative rate MMP-8 [2]: 170
Relative rate MMP-7 [3]: 63
Relative rate MMP-3 [4]: 68
Relative rate MMP-9 [5]: 26
Relative rate MMP-1 [6]: 95
Relative rate MMP-2 [7]: 15

Gly-Pro-Gln-Pro#Ile-Ala-Gly-Gln
Relative rate MMP-8 [2]: 190
Relative rate MMP-7 [3]: 140
Relative rate MMP-3 [4]: 170
Relative rate MMP-9 [5]: 46
Relative rate MMP-1 [6]: 260
Relative rate MMP-2 [7]: 32

Gly-Pro-Gln-Tyr#Ile-Ala-Gly-Gln
Relative rate MMP-8 [2]: 180
Relative rate MMP-7 [3]: 34
Relative rate MMP-3 [4]: 68
Relative rate MMP-9 [5]: 30
Relative rate MMP-1 [6]: 130
Relative rate MMP-2 [7]: 58

Gly-Pro-Gln-Val#Ile-Ala-GLy-Gln
Relative rate MMP-8 [2]: 7.9
Relative rate MMP-7 [3]: <5.0
Relative rate MMP-3 [4]: 32
Relative rate MMP-9 [5]: <5.0
Relative rate MMP-1 [6]: 5.5
Relative rate MMP-2 [7]: <5.0

Gly-Pro-Hyp-Gly#Ile-Ala-Gly-Gln
Relative rate MMP-8 [2]: 15
Relative rate MMP-7 [3]: 17
Relative rate MMP-3 [4]: 83
Relative rate MMP-9 [5]: 15
Relative rate MMP-1 [6]: 11
Relative rate MMP-2 [7]: 32

Gly-Pro-Leu-Gly#Ile-Ala-Gly-Gln
Relative rate MMP-8 [2]: 260
Relative rate MMP-7 [3]: 420
Relative rate MMP-3 [4]: 190
Relative rate MMP-9 [5]: 290
Relative rate MMP-1 [6]: 150
Relative rate MMP-2 [7]: 330

Gly-Pro-Tyr-Gly#Ile-Ala-Gly-Gln
Relative rate MMP-8 [2]: 110
Relative rate MMP-7 [3]: 240
Relative rate MMP-3 [4]: 230
Relative rate MMP-9 [5]: 150
Relative rate MMP-1 [6]: 200
Relative rate MMP-2 [7]: 200

Gly-Pro-Val-Gly#Ile-Ala-Gly-Gln
Relative rate MMP-8 [2]: 30
Relative rate MMP-7 [3]: 57
Relative rate MMP-3 [4]: 160
Relative rate MMP-9 [5]: 110
Relative rate MMP-1 [6]: 32
Relative rate MMP-2 [7]: 130

Gly-Pto-Arg-Gly#Ile-Ala-Gly-Gln
Relative rate MMP-8 [2]: 32
Relative rate MMP-7 [3]: 13
Relative rate MMP-3 [4]: 99
Relative rate MMP-9 [5]: 83
Relative rate MMP-1 [6]: 17
Relative rate MMP-2 [7]: 160

Gly-Pto-Met-Gly#Ile-Ala-Gly-Gln (IAGQ; printed: Ile-Ala-Gly-Gln)
Relative rate MMP-8 [2]: 160
Relative rate MMP-7 [3]: 400
Relative rate MMP-3 [4]: 120
Relative rate MMP-9 [5]: 180
Relative rate MMP-1 [6]: 160
Relative rate MMP-2 [7]: 120
